Experimental data from ChEMBL document CHEMBL1157637, “Potent DNA-directed alkylating agents: Synthesis and biological activity of phenyl N-mustard-quinoline conjugates having a urea or hydrazinecarboxamide linker” (Bioorg Med Chem, 2010).
Activity calls are given as the source filed them. No cut-off for these calls is given here.

What was measured:
NCI/ADR-RES = test: Antitumor activity against human MCF7/ADR cells xenografted in nu/nu nude mouse at 100 mg/kg, iv administered as injection in Q2D x 6 schedule; assay type: functional, organism-based; set-up: dose 100 mg/kg
CCRF-CEM [1] = test: Cytotoxicity against human CCRF-CEM cells after 72 hrs by XTT assay; assay type: functional, cell-based
CCRF-CEM [2] = test: Cytotoxicity against taxol-resistant human CCRF-CEM cells after 72 hrs by XTT assay; assay type: functional, cell-based
CCRF-CEM [3] = test: Cytotoxicity against vinblastine-resistant human CCRF-CEM cells after 72 hrs by XTT assay; assay type: functional, cell-based
CCRF-CEM [4] = test: Selectivity ratio of IC50 for taxol-resistant human CCRF-CEM cells to IC50 for human CCRF-CEM cells; assay type: functional
CCRF-CEM [5] = test: Selectivity ratio of IC50 for vinblastine-resistant human CCRF-CEM cells to IC50 for human CCRF-CEM cells; assay type: functional
MX1 [6] = test: Cytotoxicity against human MX1 cells after 72 hrs by SRB assay; assay type: functional, cell-based; details: MX1, 72 h
HCT-116 = test: Cytotoxicity against human HCT116 cells after 72 hrs by SRB assay; assay type: functional, cell-based; details: HCT-116, 72 h
[7] = Cytotoxicity against human H1299 cells after 72 hrs by alamar blue assay; assay type: functional, cell-based; details: NCI-H1299, 72 h
[8] = Cytotoxicity against human CL1-5 cells after 72 hrs by alamar blue assay; assay type: functional, cell-based; details: CL1-5, 72 h
[9] = Cytotoxicity against human CL1-0 cells after 72 hrs by alamar blue assay; assay type: functional, cell-based; details: CL1-0, 72 h
PC-3 = test: Cytotoxicity against human PC3 cells after 72 hrs by alamar blue assay; assay type: functional, cell-based; details: PC-3, 72 h
MCF7 = test: Cytotoxicity against human MCF7 cells after 72 hrs by alamar blue assay; assay type: functional, cell-based; details: MCF7, 72 h
MX1 [10] = test: Antitumor activity against human MX1 cells xenografted in nu/nu nude mouse assessed as complete tumor remission at 150 mg/kg, iv administered as injection in Q2D x 5 schedule measured on day 16; assay type: functional, organism-based; set-up: dose 150 mg/kg
MX1 [11] = test: Antitumor activity against human MX1 cells xenografted in nu/nu nude mouse assessed as complete tumor remission at 150 mg/kg, iv administered as injection in Q2D x 5 schedule measured on day 70; assay type: functional, organism-based; set-up: dose 150 mg/kg
Mus musculus [12] = test: Toxicity in nu/nu nude mouse assessed as body weight loss at 150 mg/kg, iv administered as injection in Q2D x 5 schedule measured on day 16; assay type: organism-based; set-up: dose 150 mg/kg, route intravenous; details: in vivo
Mus musculus [13] = test: Toxicity in nu/nu nude mouse assessed as body weight loss at 150 mg/kg, iv administered as injection in Q2D x 5 schedule measured on day 18; assay type: organism-based; set-up: dose 150 mg/kg, route intravenous; details: in vivo
Mus musculus [14] = test: Toxicity in nu/nu nude mouse assessed as body weight loss at 100 mg/kg, iv administered as injection in Q2D x 6 schedule; assay type: organism-based; set-up: dose 100 mg/kg, route intravenous; details: in vivo
[15] = Metabolic stability in rat plasma assessed as half life; assay type: ADME, cell-free
Nucleic Acid [16] = test: Binding affinity to pEGFP-N1 DNA assessed as formation of interstrand cross-links with DNA by alkaline gel shift assay; assay type: nucleic-acid assay
Nucleic Acid [17] = test: Binding affinity to DNA in human H1299 cells assessed as formation of DNA cross-links after irradiation by modified single cell gel electrophoresis comet assay; assay type: cell-based
Nucleic Acid [18] = test: Binding affinity to DNA in human H1299 cells assessed as formation of DNA cross-links at 10 uM followed by irradiation by modified single cell gel electrophoresis comet assay; assay type: cell-based

Question: Which results are given for `Cc1cc(NC(=O)Nc2ccc(N(CCCl)CCCl)cc2)c2ccccc2n1`?
Answer: Activity (NCI/ADR-RES): Active; IC50 (CCRF-CEM [1]): 193 nM; IC50 (CCRF-CEM [2]): 429 nM; IC50 (CCRF-CEM [3]): 664 nM; Ratio IC50 (CCRF-CEM [4]): 2.2; Ratio IC50 (CCRF-CEM [5]): 3.4; IC50 (MX1 [6]): 343 nM; IC50 (HCT-116): 1420 nM; IC50 [7]: 1980 nM; IC50 [8]: 9450 nM; IC50 [9]: 9020 nM; IC50 (PC-3): 9520 nM; IC50 (MCF7): 9080 nM; Activity (MX1 [10]): Active; Activity (MX1 [11]): Active; Activity (Mus musculus [12]): 2%; Activity (Mus musculus [13]): Non-toxic; Activity (Mus musculus [14]): Non-toxic; half-life [15]: 16.5 h; Activity (Nucleic Acid [16]): Active; Activity (Nucleic Acid [17]): Dose-dependent effect; Activity (Nucleic Acid [18]): 31.3%
